Data published in patent US12351587B2, “Bicyclic compound as RIP-1 kinase inhibitor and application thereof” (MEDSHINE DISCOVERY INC., priority 2019, dated 2025).

Experiments:
[1] = tested on: L929 cells; test: In vitro activity assay of mouse RIP1: L929 cell TNFα/QVD-OPh-induced necroptosis; type: cell-based; conditions: TNF-α 50 ng/mL + Q-VD 50 μM, 24 h, CellTiter Glo
Procedure: Assay Example 2: In Vitro Activity Assay of Mouse RIP1
L929 (purchased from ATCC, Item No.: CCL-1)
Instrument Microplate reader (Perkin Elmer, Envision) Formulation of Reagents L929 cell complete medium: EMEM+10% horse serum (volume ratio)+1% double antibiotics (volume ratio) Assay Step • 1. The cultured L929 cells were digested with trypsin, centrifuged, resuspended in complete culture medium, and then counted. The cell concentration was then diluted to 1×10^5/mL with complete culture medium. • 2. The cell suspension was added to a 96-well plate at 100 μL per well and incubated at 37° C. and 5% CO2 for 24 h. • 3. Different concentrations of assay compounds were added to each well, and dimethyl sulfoxide was added to the control group. The plate was incubated at 37° C. and 5% CO2 for 1 h. • 4. To each well were added TNF-α at a final concentration of 50 ng/mL and Q-VD at a final concentration of 50 μM, and the plate was incubated at 37° C. and 5% CO2 for 24 h. • 5. To each well was added 50 μL of CellTiter Glo […], and the plate was shaken in the dark for 10 min. • 6. The plate was read on the microplate reader.

[2] = Pharmacokinetic parameters in dogs; type: in vivo; conditions: beagle, plasma, dog
Procedure: Four healthy adult beagle dogs were selected and randomly divided into two groups. One group was given the assay compound by intravenous injection, and the other group was given the assay compound by gavage. Plasma samples were collected respectively from animals in the intravenous group and gavage group at 0.083, 0.25, 0.5, 1.0, 2.0, 4.0, 6.0, 8.0, 24 hours after administration. The blood concentration was determined by LC-MS/MS method. Relevant pharmacokinetic parameters were calculated by WinNonlin™ Version 6.3 (Pharsight. Mountain View, CA) pharmacokinetic software using non-compartmental model and linear logarithmic trapezoidal method. AUC0-last represents the area under the plasma concentration-time curve from zero time point to the last detectable concentration time point; Cmax represents the peak concentration; Tmax represents the time to reach the peak; T1/2 represents the half-life; CL represents the clearance rate; Vdss represents apparent volume of distribution; p.o. represents per os; i.v. represents intravenous injection; and F % represents oral bioavailability.

[3] = molecular target: T1, RIP1 (Homo sapiens, UniProt Q13546); test: Kinase selectivity assay (Eurofins, 33P radiolabeled kinase activity): RIP1; type: biochemical; conditions: WX009 1 μM, ATP 10 μM, read-out: Inhibition rate
T1 construct: purchased Eurofins Pharma Discovery Service
T1 sequence (Q13546 1-671): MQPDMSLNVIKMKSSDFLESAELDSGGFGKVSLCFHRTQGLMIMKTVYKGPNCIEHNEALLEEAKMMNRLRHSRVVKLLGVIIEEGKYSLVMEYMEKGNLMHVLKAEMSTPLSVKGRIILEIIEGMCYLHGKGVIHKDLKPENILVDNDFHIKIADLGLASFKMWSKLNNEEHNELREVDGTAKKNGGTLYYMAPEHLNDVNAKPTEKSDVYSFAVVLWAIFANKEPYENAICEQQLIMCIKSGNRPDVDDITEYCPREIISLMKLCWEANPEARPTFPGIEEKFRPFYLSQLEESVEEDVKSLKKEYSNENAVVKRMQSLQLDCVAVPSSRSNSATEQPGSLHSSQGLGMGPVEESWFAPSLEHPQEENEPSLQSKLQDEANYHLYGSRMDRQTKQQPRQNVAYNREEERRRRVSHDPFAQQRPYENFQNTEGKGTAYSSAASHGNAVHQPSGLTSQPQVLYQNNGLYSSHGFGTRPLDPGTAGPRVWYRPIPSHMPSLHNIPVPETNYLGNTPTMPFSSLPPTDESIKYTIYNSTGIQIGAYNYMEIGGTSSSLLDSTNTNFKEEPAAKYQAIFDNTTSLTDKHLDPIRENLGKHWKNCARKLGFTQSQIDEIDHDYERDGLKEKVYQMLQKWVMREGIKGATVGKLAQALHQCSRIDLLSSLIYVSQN
Procedure: The purpose of this assay was to detect the in vitro inhibitory activity of WX009 on a variety of kinases. The kinases used in this assay included 413 kinases, and the activity detection method was provided by Eurofins Pharma Discovery Service A method of detecting ^33P radiolabeled kinase activity was used for the assay. The concentration of WX009 was 1 μM, and the concentration of ATP was 10 μM.

CN1C(=S)[C@@H](NC(=O)c2ncn(Cc3ccccc3)n2)COc2cccnc21 [WX009]
IC50 [1]: 0.103 µM
AUC(0-t) ([2]; 3 mg/kg, iv = 3 mpk): 20.8 µM·h
clearance ([2]; 3 mg/kg, iv = 3 mpk): 0.372 L/h/kg
half-life ([2]; 3 mg/kg, iv = 3 mpk): 5.5 h
Vd ([2]; 3 mg/kg, iv = 3 mpk, read-out: Vdss): 2.4 L/kg
AUC(0-t) ([2]; 10 mg/kg, po = 10 mpk): 23.6 µM·h
Cmax ([2]; 10 mg/kg, po = 10 mpk): 0.284 µM
Tmax ([2]; 10 mg/kg, po = 10 mpk): 2 h
bioavailability ([2]; po = 10 mpk vs iv = 3 mpk): 34.2%
inhibition at 1 µM [3]: > 80%
